# Laboratory results: US10323022B2, “Pyrrolidinyl urea, pyrrolidinyl thiourea and pyrrolidinyl guanidine compounds as TrkA kinase inhibitors” (Array BioPharma Inc., priority 2011, dated 2019)
# Counter-ions that a name gives are not always drawn.
# Biological target: TrkA (Homo sapiens (Human), UniProt P04629)
# Assay: TrkA Omnia Assay
# Format: biochemical
# Conditions: averaged IC50; 20 nM enzyme, 500 μM ATP, 10 μM peptide substrate
# In short: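 Continuous fluorescent kinase read-out (ex 360 nm, em 485 nm) over 70 min, with initial rates fitted to 4- or 5-parameter logistic curves for IC50. Final conditions: 500 μM ATP, 10 μM Omnia Tyr Peptide #4, 20 nM TrkA, MOPS pH 7.5 buffer with MgCl2 and Triton X-100; enzyme and compound preincubated 10 min at ambient temperature.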
# Chain of TrkA (P04629 33-796): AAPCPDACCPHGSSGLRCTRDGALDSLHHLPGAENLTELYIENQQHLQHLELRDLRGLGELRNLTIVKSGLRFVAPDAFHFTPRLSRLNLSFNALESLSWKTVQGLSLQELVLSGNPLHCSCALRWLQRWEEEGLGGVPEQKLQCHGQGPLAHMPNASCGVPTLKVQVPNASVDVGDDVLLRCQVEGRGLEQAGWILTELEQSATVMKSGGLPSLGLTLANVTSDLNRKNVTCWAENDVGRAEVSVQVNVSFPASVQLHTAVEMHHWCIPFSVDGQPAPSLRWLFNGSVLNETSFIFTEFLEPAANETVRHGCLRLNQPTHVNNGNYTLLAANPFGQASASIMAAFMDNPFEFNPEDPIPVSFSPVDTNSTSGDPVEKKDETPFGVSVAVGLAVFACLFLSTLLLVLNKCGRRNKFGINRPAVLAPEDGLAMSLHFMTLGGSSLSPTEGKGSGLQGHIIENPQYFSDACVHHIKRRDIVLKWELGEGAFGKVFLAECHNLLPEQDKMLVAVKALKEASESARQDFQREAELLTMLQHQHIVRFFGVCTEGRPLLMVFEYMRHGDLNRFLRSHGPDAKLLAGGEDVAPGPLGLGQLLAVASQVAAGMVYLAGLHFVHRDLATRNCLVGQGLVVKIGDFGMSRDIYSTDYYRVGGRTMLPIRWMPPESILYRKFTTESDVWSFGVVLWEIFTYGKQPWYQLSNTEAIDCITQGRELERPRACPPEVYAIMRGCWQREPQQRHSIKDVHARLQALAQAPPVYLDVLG
row,IC50,Compound
1,0.1 to 1 µM,"COCCN1C[C@@H](NC(=O)Nc2cc(C3CCNCC3)nn2-c2ccccc2)[C@H](c2ccc(F)c(F)c2)C1 [Example 580, 1-((3S,4R)-4-(3,4-difluorophenyvl)-1-(2-methoxyethyl)pyrrolidin-3-yl)-3-(1-phenyl-3-(piperidin-4-yl)-1H-pyrazol-5-yl)urea dihydrochloride]"
2,< 0.1 µM,"COCCN1C[C@@H](NC(=O)Nc2c(Cl)c(C3CCNCC3)nn2-c2ccccc2)[C@H](c2ccc(F)c(F)c2)C1 [Example 581, 1-(4-chloro-1-phenyl-3-(piperidin-4-yl)-1H-pyrazol-5-yl)-3-((3S,4R)-4-(3,4-difluorophenyl)-1-(2-methoxyethyl)pyrrolidin-3-yl)urea dihydrochloride]"
3,< 0.1 µM,"COCCN1C[C@@H](NC(=O)Nc2c(Br)c(C3CCNCC3)nn2-c2ccccc2)[C@H](c2ccc(F)c(F)c2)C1 [Example 582, 1-(4-bromo-1-phenyl-3-(piperidin-4-yl)-1H-pyrazol-5-yl)-3-((3S,4R)-4-(3,4-difluorophenyl)-1-(2-methoxyethyl)pyrrolidin-3-yl)urea dihydrochloride]"
4,< 0.1 µM,"COCCN1C[C@@H](NC(=O)Nc2c(C)c([C@H]3CCCN3)nn2-c2ccccc2)[C@H](c2ccc(F)c(F)c2)C1 [Example 583, 1-((3S,4R)-4-(3,4-difluorophenyl)-1-(2-methoxyethyl)pyrrolidin-3-yl)-3-(4-methyl-1-phenyl-3-((R)-pyrrolidin-2-yl)-1H-pyrazol-5-yl)urea dihydrochloride]"
5,< 0.1 µM,"COCCN1C[C@@H](NC(=O)Nc2c(C)c([C@@H]3CCCN3)nn2-c2ccccc2)[C@H](c2ccc(F)c(F)c2)C1 [Example 584, 1-((3S,4R)-4-(3,4-difluorophenyl)-1-(2-methoxyethyl)pyrrolidin-3-yl)-3-(4-methyl-1-phenyl-3-((S)-pyrrolidin-2-yl)-1H-pyrazol-5-yl)urea dihydrochloride]"
6,< 0.1 µM,"COCCN1C[C@@H](NC(=O)Nc2c(Cl)c([C@H]3CCCN3)nn2-c2ccccc2)[C@H](c2ccc(F)c(F)c2)C1 [Example 585, 1-((3S,4R)-4-(3,4-difluorophenyl)-1-(2-methoxyethyl)pyrrolidin-3-yl)-3-(4-chloro-1-phenyl-3-((R)-pyrrolidin-2-yl)-1H-pyrazol-5-yl)urea dihydrochloride]"
7,< 0.1 µM,"COCCN1C[C@@H](NC(=O)Nc2c(C)c([C@@H]3CCCN3)nn2-c2ccccc2)[C@H](c2cc(F)cc(F)c2)C1 [Example 586, 1-((3S,4R)-4-(3,5-difluorophenyl)-1-(2-methoxyethyl)pyrrolidin-3-yl)-3-(4-methyl-1-phenyl-3-((S)-pyrrolidin-2-yl)-1H-pyrazol-5-yl)urea dihydrochloride]"
8,< 0.1 µM,"COCCN1C[C@@H](NC(=O)Nc2c(Cl)c([C@@H]3CCCN3)nn2-c2ccccc2)[C@H](c2ccc(F)c(F)c2)C1 [Example 587, 1-((3S,4R)-4-(3,4-difluorophenyl)-1-(2-methoxyethyl)pyrrolidin-3-yl)-3-(4-chloro-1-phenyl-3-((S)-pyrrolidin-2-yl)-1H-pyrazol-5-yl)urea dihydrochloride]"
9,< 0.1 µM,"COCCN1C[C@@H](NC(=O)Nc2c(Br)c([C@H]3CCCN3)nn2-c2ccccc2)[C@H](c2ccc(F)c(F)c2)C1 [Example 588, 1-(4-bromo-1-phenyl-3-((R)-pyrrolidin-2-yl)-1H-pyrazol-5-yl)-3-((3S,4R)-4-(3,4-difluorophenyl)-1-(2-methoxyethyl)pyrrolidin-3-yl)urea dihydrochloride]"
10,0.1 to 1 µM,"COCCN1C[C@@H](NC(=O)Nc2cc(COC3CCNCC3)nn2-c2ccccc2)[C@H](c2ccc(F)c(F)c2)C1 [Example 589, 1-((3S,4R)-4-(3,4-difluorophenyl)-1-(2-methoxyethyl)pyrrolidin-3-yl)-3-(1-phenyl-3-((piperidin-4-yloxy)methyl)-1H-pyrazol-5-yl)urea dihydrochloride]"
11,< 0.1 µM,"COCCN1C[C@@H](NC(=O)Nc2c(Cl)c(COC3CCNCC3)nn2-c2ccccc2)[C@H](c2ccc(F)c(F)c2)C1 [Example 590, 1-(4-chloro-1-phenyl-3-((piperidin-4-yloxy)methyl)-1H-pyrazol-5-yl)-3-((3S,4R)-4-(3,4-difluorophenyl)-1-(2-methoxyethyl)pyrrolidin-3-yl)urea dihydrochloride]"
12,< 0.1 µM,"COCCN1C[C@@H](NC(=O)Nc2c(Br)c(COC3CCNCC3)nn2-c2ccccc2)[C@H](c2ccc(F)c(F)c2)C1 [Example 591, 1-(4-bromo-1-phenyl-3-((piperidin-4-yloxy)methyl)-1H-pyrazol-5-yl)-3-((3S,4R)-4-(3,4-difluorophenyl)-1-(2-methoxyethyl)pyrrolidin-3-yl)urea dihydrochloride]"
13,< 0.1 µM,"COCCN1C[C@@H](NC(=O)Nc2c(Br)c(C3CCN(S(C)(=O)=O)CC3)nn2-c2ccccc2)[C@H](c2ccc(F)c(F)c2)C1 [Example 592, 1-(4-bromo-3-(1-(methylsulfonyl)piperidin-4-yl)-1-phenyl-1H-pyrazol-5-yl)-3-((3S,4R)-4-(3,4-difluorophenyl)-1-(2-methoxyethyl)pyrrolidin-3-yl)urea]"
14,< 0.1 µM,"COCCN1C[C@@H](NC(=O)Nc2c(Br)c(C3CCN(C(C)=O)CC3)nn2-c2ccccc2)[C@H](c2ccc(F)c(F)c2)C1 [Example 593, 1-(3-(1-acetylpiperidin-4-yl)-4-bromo-1-phenyl-1H-pyrazol-5-yl)-3-((3S,4R)-4-(3,4-difluorophenyl)-1-(2-methoxyethyl)pyrrolidin-3-yl)urea]"
15,< 0.1 µM,"COCCN1C[C@@H](NC(=O)Nc2c(Cl)c(C3CCN(S(=O)(=O)C(F)(F)F)CC3)nn2-c2ccccc2)[C@H](c2ccc(F)c(F)c2)C1 [Example 594, 1-(4-chloro-1-phenyl-3-(1-(trifluoromethylsulfonyl)piperidin-4-yl)-1H-pyrazol-5-yl)-3-((3S,4R)-4-(3,4-difluorophenyl)-1-(2-methoxyethyl)pyrrolidin-3-yl)urea hydrochloride]"
16,< 0.1 µM,"COCCN1C[C@@H](NC(=O)Nc2c(C)c([C@H]3CCCN3S(C)(=O)=O)nn2-c2ccccc2)[C@H](c2ccc(F)c(F)c2)C1 [Example 595, 1-((3S,4R)-4-(3,4-difluorophenyl)-1-(2-methoxyethyl)pyrrolidin-3-yl)-3-(4-methyl-3-((R)-1-(methylsulfonyl)pyrrolidin-2-yl)-1-phenyl-1H-pyrazol-5-yl)urea]"
17,< 0.1 µM,"COCCN1C[C@@H](NC(=O)Nc2c(C)c([C@H]3CCCN3C(C)=O)nn2-c2ccccc2)[C@H](c2ccc(F)c(F)c2)C1 [Example 596, 1-(3-((R)-1-acetylpyrrolidin-2-yl)-4-methyl-1-phenyl-1H-pyrazol-5-yl)-3-((3S,4R)-4-(3,4-difluorophenyl)-1-(2-methoxyethyl)pyrrolidin-3-yl)urea]"
18,< 0.1 µM,"COCCN1C[C@@H](NC(=O)Nc2c(C)c([C@H]3CCCN3C)nn2-c2ccccc2)[C@H](c2ccc(F)c(F)c2)C1 [Example 597, 1-((3S,4R)-4-(3,4-difluorophenyl)-1-(2-methoxyethyl)pyrrolidin-3-yl)-3-(4-methyl-3-((R)-1-methylpyrrolidin-2-yl)-1-phenyl-1H-pyrazol-5-yl)urea dihydrochloride]"
19,< 0.1 µM,"COCCN1C[C@@H](NC(=O)Nc2c(C)c([C@@H]3CCCN3C)nn2-c2ccccc2)[C@H](c2cc(F)cc(F)c2)C1 [Example 598, 1-((3S,4R)-4-(3,5-difluorophenyl)-1-(2-methoxyethyl)pyrrolidin-3-yl)-3-(4-methyl-3-((S)-1-methylpyrrolidin-2-yl)-1-phenyl-1H-pyrazol-5-yl)urea dihydrochloride]"
20,< 0.1 µM,"COCCN1C[C@@H](NC(=O)Nc2c(Br)c(COC3CCN(S(C)(=O)=O)CC3)nn2-c2ccccc2)[C@H](c2ccc(F)c(F)c2)C1 [Example 599, 1-(4-bromo-3-((1-(methylsulfonyl)piperidin-4-yloxy)methyl)-1-phenyl-1H-pyrazol-5-yl)-3-((3S,4R)-4-(3,4-difluorophenyl)-1-(2-methoxyethyl)pyrrolidin-3-yl)urea]"
21,< 0.1 µM,"COCCN1C[C@@H](NC(=O)Nc2c(Br)c(COC3CCN(C(C)=O)CC3)nn2-c2ccccc2)[C@H](c2ccc(F)c(F)c2)C1 [Example 600, 1-(3-((1-acetylpiperidin-4-yloxy)methyl)-4-bromo-1-phenyl-1H-pyrazol-5-yl)-3-((3S,4R)-4-(3,4-difluorophenyl)-1-(2-methoxyethyl)pyrrolidin-3-yl)urea]"
22,< 0.1 µM,"COCCN1C[C@@H](NC(=O)Nc2c(C)c(-c3nn(C(C)C)c(=O)o3)nn2-c2ccccc2)[C@H](c2ccc(F)c(F)c2)C1 [Example 601, 1-((3S,4R)-4-(3,4-difluorophenyvl)-1-(2-methoxyethyl)pyrrolidin-3-yl)-3-(3-(4-isopropyl-5-oxo-4,5-dihydro-1,3,4-oxadiazol-2-yl)-4-methyl-1-phenyl-1H-pyrazol-5-yl)urea]"
23,< 0.1 µM,"COCCN1C[C@@H](NC(=O)Nc2c(C)c(-c3nn(C)c(=O)o3)nn2-c2ccccc2)[C@H](c2ccc(F)c(F)c2)C1 [Example 602, 1-((3S,4R)-4-(3,4-difluorophenyl)-1-(2-methoxyethyl)pyrrolidin-3-yl)-3-(4-methyl-3-(4-methyl-5-oxo-4,5-dihydro-1,3,4-oxadiazol-2-yl)-1-phenyl-1H-pyrazol-5-yl)urea]"
24,< 0.1 µM,"COCCN1C[C@@H](NC(=O)Nc2c(C)c(Oc3cnccn3)nn2-c2ccccc2)[C@H](c2ccc(F)cc2)C1 [Example 603, 1-((3S,4R)-4-(4-fluorophenyl)-1-(2-methoxyethyl)pyrrolidin-3-yl)-3-(4-methyl-1-phenyl-3-(pyrazin-2-yloxy)-1H-pyrazol-5-yl)urea]"
25,< 0.1 µM,"COCCN1C[C@@H](NC(=O)Nc2c(C)c(-c3ccc(=O)n(C)c3)nn2-c2ccccc2)[C@H](c2cc(F)c(F)c(F)c2)C1 [Example 604, 1-((3S,4R)-1-(2-methoxyethyl)-4-(3,4,5-trifluorophenyl)pyrrolidin-3-yl)-3-(4-methyl-3-(1-methyl-6-oxo-1,6-dihydropyridin-3-yl)-1-phenyl-1H-pyrazol-5-yl)urea]"
